Target: T1, KCC2 (Homo sapiens, UniProt Q9H2X9)
T1 construct: expressed in transfected cells; host or cells: HEK-293 (ATCC CRL-1573), Lipofectamine 2000, used 48-72 h after transfection
T1 sequence (Q9H2X9 1-1116 isoform Q9H2X9-2): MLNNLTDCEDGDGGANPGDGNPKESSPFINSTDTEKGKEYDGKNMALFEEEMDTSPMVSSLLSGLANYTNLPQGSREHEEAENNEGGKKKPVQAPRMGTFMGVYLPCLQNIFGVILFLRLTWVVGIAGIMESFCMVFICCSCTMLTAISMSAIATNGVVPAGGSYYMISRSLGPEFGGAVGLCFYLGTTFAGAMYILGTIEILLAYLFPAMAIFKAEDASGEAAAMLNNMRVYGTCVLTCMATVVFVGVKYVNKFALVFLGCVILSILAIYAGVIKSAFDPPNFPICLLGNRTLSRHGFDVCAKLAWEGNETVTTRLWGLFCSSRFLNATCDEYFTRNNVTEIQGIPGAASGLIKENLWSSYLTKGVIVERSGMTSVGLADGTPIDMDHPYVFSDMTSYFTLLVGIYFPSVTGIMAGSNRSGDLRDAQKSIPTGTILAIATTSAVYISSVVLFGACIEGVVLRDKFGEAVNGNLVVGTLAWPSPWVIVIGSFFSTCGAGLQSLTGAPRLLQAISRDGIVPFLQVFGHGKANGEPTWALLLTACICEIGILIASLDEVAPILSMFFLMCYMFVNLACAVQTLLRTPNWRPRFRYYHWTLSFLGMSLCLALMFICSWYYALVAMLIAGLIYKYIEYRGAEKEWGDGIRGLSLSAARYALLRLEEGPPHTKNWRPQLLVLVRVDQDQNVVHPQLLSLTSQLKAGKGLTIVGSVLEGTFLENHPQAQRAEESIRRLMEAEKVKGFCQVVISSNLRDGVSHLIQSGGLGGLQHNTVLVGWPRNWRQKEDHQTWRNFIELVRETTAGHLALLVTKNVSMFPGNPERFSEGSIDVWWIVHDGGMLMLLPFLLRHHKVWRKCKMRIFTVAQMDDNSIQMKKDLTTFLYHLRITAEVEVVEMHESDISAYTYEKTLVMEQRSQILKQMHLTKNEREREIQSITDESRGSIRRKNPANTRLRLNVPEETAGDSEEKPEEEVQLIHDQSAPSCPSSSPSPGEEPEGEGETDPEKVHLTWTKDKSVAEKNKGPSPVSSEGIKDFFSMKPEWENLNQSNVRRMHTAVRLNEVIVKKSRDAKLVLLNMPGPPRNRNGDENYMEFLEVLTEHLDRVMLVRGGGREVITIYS
Test: Cell surface biotinylation of KCC2 in HEK-293 cells
Assay type: cell-based
Settings: 15 min
Experimental: Cell Culture and biotinylation. HEK-293 cells were purchased from ATCC (CRL-1573) and transfected with human KCC2 and GFP expression plasmids using Lipofectamine 2000. Cells were utilized for experimentation 48-72 h following transfection. Cells were biotinylated at 4° C. using NHS-Biotin. Following lysis and purification on immobilized avidin beads, cell surface and total fractions were subject to immunoblotting as outlined previously (Conway et al., 2017, supra).
The reliability of the biotinylation procedure was assessed via immunoblotting with antibodies against the cytosolic protein actin. Actin was present in the total lysates but was absent from the surface fractions (FIG. 2C).

Compound: C[C@@H]1CN(c2nc3c(c(Nc4ccc(C5CCCCC5)cc4)n2)COC3)CCO1 [Compound A, (R)—N-(4-cyclohexylphenyl)-2-(2-methylmorpholino)-5,7-dihydrofuro[3,4-d]pyrimidin-4-amine]
- level of KCC2 on the plasma membrane (surface/total) (0.3 μM): 94.5 ±8.4 % of control
- level of KCC2 on the plasma membrane (surface/total) (3 μM): 104.7±8.4 % of control

Source: US20250281499A1, “FUSED AMINO PYRIMIDINE COMPOUNDS FOR TREATMENT OF NEUROPATHIC AND NEURO-INFLAMMATORY PAIN” (Ovid Therapeutics Inc., priority 2024, published 2025)
